Data set [1] can be described thus: Binding to human plasma protein by rapid equilibrium dialysis. It counts as in vitro ADME. The following applies: 1 μg mL^−1. The protocol:
Binding to plasma proteins, brain homogenates or proteins in serum-fortified HMI-9 media was determined by rapid equilibrium dialysis (RED) (Pierce, Rockford, IL) using a 48-well plate-based format according to the manufacturer's instructions. Briefly, test compound was added to fresh plasma (Bioreclamation, Liverpool, NY) at the required concentrations, freshly prepared brain homogenate or media. Duplicate aliquots of each sample were transferred into the sample chambers of the RED devices, and dialysis buffer (BupH PBS) was added to the buffer chambers. The plates were sealed and incubated at 37 °C for 4 h. After dialysis, samples collected from the buffer and tissue chambers were treated with ice-cold methanol (3 volumes for plasma or HMI-9 media, 4 volumes for brain) to precipitate proteins. The treated samples were centrifuged for 10 min at approximately 3000 g at 15 °C. The supernatants were assayed for test compound by LC-MSMS. Calibration standards and quality control samples were prepared in matched matrix and assayed with samples. Values for unbound and bound fractions and mass balance were calculated. Concordance of binding for each batch of plasma was confirmed by assay of warfarin, imipramine and carbamezapine. Acceptance criterion for mass balance was 70–120%.
A general note: Equilibrium dialysis compares concentrations on both sides of a semipermeable membrane.

The test system of the next data set is L929 mammalian cell line. Briefly: L929 mammalian cell cytotoxicity / selectivity. In kind it is cell-based.
A short description of data set [2]: Single oral dose pharmacokinetics and CNS penetration in male CD-1 mice. In kind it is in vivo, mouse. The protocol:
The CNS disposition and pharmacokinetics of the benzoxaboroles were evaluated in infected and uninfected mice following oral administration. In vivo phases of single-dose rodent PK studies were performed at Vivisource (Waltham, MA) following Institutional Animal Care and Use Committee (IACUC) review in an Association for Assessment and Accreditation of Laboratory Animal Care International (AAALAC)-approved facility. Studies in Trypanosoma brucei brucei (TREU 667 strain) infected mice, or uninfected satellite animals, were performed after IACUC review at Pace University (NewYork, NY).
Male CD-1 or female Swiss Webster mice (approximately 25 g) were administered test compounds by oral gavage either once (QD) or twice per day (Q12 h) with doses ranging between 6 and 100 mg kg^−1 as described below. All compounds were formulated as an in situ sodium salt in 2% (v/v) ethanol, 5% (m/v) dextrose, to yield typically clear colourless solutions that were administered at 4 mL kg^−1. Blood samples for pharmacokinetic studies were collected into polypropylene tubes containing K2EDTA anticoagulant and stored on wet ice until centrifuged and processed to plasma. Plasma was stored at −80 °C. Blood samples from mice were collected via cardiac puncture under terminal anaesthesia. Rodents were euthanized in a CO2 chamber before collection of terminal blood or tissue samples. Brain tissues were blotted dry and stored at approximately −80 °C.
Plasma (50 μL) was treated with 4 volumes of ice-cold methanol (containing 25 ng mL^−1 of either deuterium (d6)-labelled SCYX-7158 internal standard (SCYX-5232) for SCYX-7158 analyses or a related benzoxaborole for other compounds) to precipitate proteins. Treated samples were gently mixed on a 96-well plate shaker for approximately 10 min then centrifuged at approximately 3000 g and 15 °C for 15 min. Supernatants were transferred to fresh 96-well plates for analysis by means of LC-MSMS. Samples of tissue homogenate (50 μL), or buffer from protein binding studies, were treated similarly to plasma samples.
All biological samples were assayed by a verified LC-MSMS method employing two dimensional chromatographic separation to overcome ion suppression (Annesely, [2003]) caused by co-elution of endogenous components with benzoxaboroles. In summary, treated samples were loaded onto Phenomenex (Torrance, CA) Synergi Polar RP, 4 μ, 50×2 mm extraction columns and subsequently back-eluted onto a Phenomenex Luna C8(2) 3 μ, 50×2 mm analytical columns protected by a Phenomenex C8 guard cartridge. Mobile phases for extraction and analytical columns consisted of 5 mM ammonium formate and 0·1% (v/v) formic acid in water (A), and 5 mM ammonium formate and 0·1% (v/v) formic acid in methanol (B). […]

Structures are written as SMILES. ≈ marks a conversion by molar mass, not a printed value.

The text below walks through data of PMC3884839, “Pharmacokinetics and pharmacodynamics utilizing unbound target tissue exposure as part of a disposition-based rationale for lead optimization of benzoxaboroles in the treatment of Stage 2 Human African Trypanosomiasis” (Parasitology, 2013).

As a reminder, the IC50 is the midpoint of a concentration-inhibition curve. Read a high IC50 as a need for much substance. `CC1(C)OB(O)c2cc(NC(=O)c3ccc(F)cc3C(F)(F)F)ccc21` [SCYX-7158] showed a Mass balance in data set [1] of 110%. In addition, the half-inhibitory concentration (IC50) in the data set on L929 mammalian cell line (Mus musculus, L929 mammalian cell line, cytotoxicity) was determined as 50 µg/mL (≈ 136 µM). In the data set on L929 mammalian cell line (parasite vs L929), the Selectivity result is recorded as “⩾138”. In addition, the “time CNS (brain) total concentration above MIC” value in data set [2] is around 20 h.
